Experimental data taken from ChEMBL document CHEMBL4619770, “Comatulins A-E, Taurine-Conjugated Anthraquinones from the Australian Crinoid Comatula rotalaria” (J Nat Prod, 2020).
pEC50, pIC50: −log10 of the molar value. Activity calls are given as the source filed them. The calls are words filed in the database; no cut-off is given here.

What was measured:
Haemonchus contortus [1] = assay: Anti-helmintic activity against third-stage Haemonchus contortus larvae assessed as reduction in development of xL3 stage larvae to L4 stage at 100 uM after 7 days; type: functional, organism-based
[2] = tested on: Human immunodeficiency virus 1; assay: Antiviral activity against HIV-1 assessed as reduction in viral replication; type: functional, organism-based
Haemonchus contortus [3] = assay: Anti-helmintic activity against third-stage Haemonchus contortus larvae assessed as induction of eviscerated phenotype at 100 uM measured on day 7 by light microscopic analysis relative to control; type: functional
Haemonchus contortus [4] = assay: Anti-helmintic activity against third-stage Haemonchus contortus larvae assessed as reduction in development of xL3 stage larvae to L4 stage at low concentration after 7 days; type: functional, organism-based
Haemonchus contortus [5] = assay: Anti-helmintic activity against fourth stage L4 Haemonchus contortus larvae assessed as induction of changes in internal structure measured on day 7 by light microscopic method; type: functional, organism-based
Haemonchus contortus [6] = assay: Anti-helmintic activity against third-stage Haemonchus contortus larvae assessed as reduction in larval motility after 72 hrs; type: functional, organism-based
Haemonchus contortus [7] = assay: Anti-helmintic activity against third-stage Haemonchus contortus larvae assessed as reduction in development of xL3 stage larvae to L4 stage after 7 days; type: functional, organism-based; details: 168 h
Haemonchus contortus [8] = assay: Anti-helmintic activity against fourth stage L4 Haemonchus contortus larvae assessed as induction of eviscerated phenotype measured on day 7 by light microscopic method; type: functional, organism-based
[9] = tested on: Human immunodeficiency virus 1; assay: Antiviral activity against HIV-1 assessed as reduction in viral replication at 0.1 uM; type: functional; set-up: scale not given: the % may be the effect or the level left
[10] = tested on: Human immunodeficiency virus 1; assay: Antiviral activity against HIV-1 NL4.3 infected in CEM-GXR T cells assessed as reduction in viral replication after 72 hrs by flow cytometry; type: functional, organism-based; details: Human immunodeficiency virus 1, NL4.3, CEM-GXR

| SMILES | pEC50 [2] | also measured |
| --- | --- | --- |
| CCCc1cc(=O)c2c(OC)c(OC)c3cc(OC)cc(OC)c3c2o1 | < 4.00 | Activity (Haemonchus contortus [1]): Active; Activity (Haemonchus contortus [3]): 51%; Activity (Haemonchus contortus [4]): inactive; Activity (Haemonchus contortus [5]): Active; pIC50 (Haemonchus contortus [6]): 4.52; pIC50 (Haemonchus contortus [7]): 4.51; Activity (Haemonchus contortus [8]): inactive |
| CC(C)(C)NC(=O)[C@@H]1CN(Cc2cccnc2)CCN1C[C@@H](O)C[C@@H](Cc1ccccc1)C(=O)N[C@H]1c2ccccc2C[C@H]1O.O [INDINAVIR] | – | Activity [9]: 72% |
| CCCc1cc(=O)c2c(O)c(OC)c3cc(O)cc(OC)c3c2o1 | < 4.00 | – |
| COc1cc(OC)c2c(c1)C(=O)c1c(C(C)=O)c(O)cc(O)c1C2=O | < 4.00 | – |
| CCCC(=O)c1c(O)c(CNCCS(=O)(=O)O)c(O)c2c1C(=O)c1cc(OC)cc(O)c1C2=O | < 4.00 | – |
| O=C1c2cc(O)cc(O)c2C(=O)c2c(O)cc(O)cc21 | < 4.00 | – |
| COc1cc(O)c2c(c1)C(=O)c1c(C(C)=O)c(O)cc(O)c1C2=O | < 4.00 | – |
| CCCC(=O)c1c(O)cc(O)c2c1C(=O)c1cc(O)cc(O)c1C2=O | < 4.00 | Activity (Haemonchus contortus [1]): Active |
| CC(=O)c1c(O)cc(O)c2c1C(=O)c1cc(O)cc(O)c1C2=O | < 4.00 | – |
| CCCc1cc(=O)c2c(O)cc3cc(O)cc(OC)c3c2o1 [COMAPARVIN] | 5.24 | pEC50 [10]: 5.12 |
| CCCC(=O)c1c(O)cc(O)c2c1C(=O)c1cc(OC)c(OC)c(O)c1C2=O | < 4.00 | – |
| COc1cc(O)c2c(c1)C(=O)c1c(C(C)=O)c(O)c(CNCCS(=O)(=O)O)c(O)c1C2=O | < 4.00 | – |
| CCCC(=O)c1c(O)cc(O)c2c1C(=O)c1cc(OC)cc(O)c1C2=O | < 4.00 | – |
| CCCC(=O)c1c(O)cc(O)c2c1C(=O)c1cc(OC)cc(OC)c1C2=O | < 4.00 | – |
